{"source": "patent US20240245677A1", "about": "“SELECTED COMPOUNDS FOR TARGETED DEGRADATION OF BRD9” (C4 THERAPEUTICS, INC., priority 2021, published 2024)", "key": {"hERG potassium channels": {"biological_target": "hERG potassium channels (Homo sapiens, UniProt Q12809)", "sequence (Q12809 whole entry)": "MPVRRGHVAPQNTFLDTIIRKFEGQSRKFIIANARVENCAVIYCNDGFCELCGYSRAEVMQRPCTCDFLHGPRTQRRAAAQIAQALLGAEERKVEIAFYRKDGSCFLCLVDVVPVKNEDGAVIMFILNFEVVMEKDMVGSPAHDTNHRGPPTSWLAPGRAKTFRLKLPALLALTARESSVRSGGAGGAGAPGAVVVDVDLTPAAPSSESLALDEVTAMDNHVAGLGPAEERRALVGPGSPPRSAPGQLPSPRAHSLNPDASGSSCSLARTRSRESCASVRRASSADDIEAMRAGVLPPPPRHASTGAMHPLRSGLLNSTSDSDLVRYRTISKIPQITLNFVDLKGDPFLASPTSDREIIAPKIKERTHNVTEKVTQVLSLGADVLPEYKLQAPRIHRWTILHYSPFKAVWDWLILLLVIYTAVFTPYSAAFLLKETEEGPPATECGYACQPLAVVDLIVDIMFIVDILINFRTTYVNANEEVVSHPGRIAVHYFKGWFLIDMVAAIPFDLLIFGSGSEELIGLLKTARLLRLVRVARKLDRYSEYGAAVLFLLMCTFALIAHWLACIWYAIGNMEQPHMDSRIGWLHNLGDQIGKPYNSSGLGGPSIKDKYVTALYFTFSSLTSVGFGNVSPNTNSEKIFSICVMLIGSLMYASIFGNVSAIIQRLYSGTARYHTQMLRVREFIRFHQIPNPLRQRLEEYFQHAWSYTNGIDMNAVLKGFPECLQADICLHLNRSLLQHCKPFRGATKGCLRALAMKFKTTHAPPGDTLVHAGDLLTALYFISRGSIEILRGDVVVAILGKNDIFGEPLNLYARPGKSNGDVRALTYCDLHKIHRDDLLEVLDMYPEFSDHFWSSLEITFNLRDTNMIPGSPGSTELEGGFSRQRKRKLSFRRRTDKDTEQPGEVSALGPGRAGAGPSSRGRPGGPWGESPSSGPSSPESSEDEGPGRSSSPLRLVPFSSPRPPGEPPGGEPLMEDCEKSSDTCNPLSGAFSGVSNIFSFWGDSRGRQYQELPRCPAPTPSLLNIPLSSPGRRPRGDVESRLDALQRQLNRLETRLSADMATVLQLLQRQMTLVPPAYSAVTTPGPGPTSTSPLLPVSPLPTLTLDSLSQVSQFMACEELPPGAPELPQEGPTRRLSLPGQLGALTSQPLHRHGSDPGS", "assay": "cell-based", "procedure": "The effects of Compound 1 on the hERG potassium channels were evaluated using the automated patch clamp method (SyncroPatch® 384PE, Nanion Technologies GmbH, Munich, Germany).\nCHO cells stably expressing hERG potassium channels (Sophion Bioscience, Inc. Bedford, MA, USA) were used for this test. The cells were cultured in a humidified and air-controlled (5% CO2) incubator at 37° C. The CHO hERG cell culture medium was 500 mL Ham's F-12 medium (Catalog No. 31765035, Invitrogen, Waltham, MA, USA), 50 mL HyClone™ Fetal Bovine Serum (Catalog No. SV30087.03, Cytiva, Marlborough, MA, USA), 1 mL Geneticin™ (G418 Sulfate, 50 mg/mL)) (Catalog No. 10131027, Invitrogen, Waltham, MA, USA), and 1 mL Hygromycin B (50 mg/mL) (Catalog No. 10687010, Invitrogen, Waltham, MA, USA).\nThe CHO cells were at least two days after plating and more than 75% confluent were used. Before testing, cells were harvested using TrypLE™ and resuspended in the physiological solution at the room temperature.\nThe solutions in Table 9 were used for the electrophysiological recordings. The physiological solution and external solution were prepared at least one month prior to the experiment. The intracellular solution was prepared in batches, aliquoted, and stored at 4° C. until use.\nThe stock solutions were further diluted into external solution to achieve final concentrations for testing. A visual check for precipitation was conducted before testing. Final DMSO concentration in external solution was not more than 0.30% for the test compounds.\nThe voltage command protocol started from a holding potential of −80 mV. Then, the voltage was first stepped to −50 mV for 80 ms for leak subtraction, and then stepped to +20 mV for 4,800 ms to open hERG channels. After that, the voltage was stepped back down to −50 mV for 5,000 ms, causing a “rebound” or tail current, which was measured and collected for data analysis. Finally, the voltage was stepped back to the holding potential of −80 mV for 1,000 ms. This voltage command protocol was repeated every 20,000 msec, and performed continuously during the test of vehicle control and test compounds.\nThis SyncroPatch hERG assay was conducted at room temperature. The Setup, Prime Chip, Catch and Seal Cells, Amplifier Settings, Voltage and Application Protocols were established with […] (Nanion Technologies GmbH, Munich, Germany). One addition of 40 μL of vehicle was applied, followed by a baseline period of 300 s. Then 40 μL doses of test compounds were added. The exposure of test compound at each concentration was no less than 300 s. The recording for the whole process passed quality control or the well was abandoned and the compound was retested, all automatically set by PatchControl (Nanion Technologies, Munich, Germany). Five concentrations (0.30 μM, 1.00 μM, 3.00 μM, 10.00 μM and 30.00 μM) were tested for each compound. A minimum of 2 replicates per concentration were obtained.\nData analysis was carried out using DataControl® (Nanion Technologies GmbH, Munich, Germany), EXCEL 2013 (Microsoft Corporation, Redmond, WA, USA) and GraphPad Prism 5.0 (GraphPad Software, LLC, San Diego, CA, USA).\nWithin each recording well, percent of control values were calculated for each test compound concentration current response based on peak current in presence of reference control (current response/peak current)×100%. The Dose-Response curves were fit to the standard Hill equation as shown below: […]\nwhere X is the logarithm of concentration, Ipost cpd/Ipre cpd is the normalized peak current amplitude, Top is 1, and Bottom is equal to 0. Curve-fitting and IC50 calculations were performed by GraphPad Prism 5.0."}, "[1]": {"assay": "Crystallization at room temperature by slow evaporation", "format": "physicochemical", "procedure": "Based on approximate solubility results, about 10 mg of Compound 1 free form Pattern E was dissolved in suitable amount of solvents. Obtained suspensions or solutions were centrifuged. […] Solid residues were examined for their polymorphic form."}}, "data": [{"compound": "COc1cc(-c2cn(C)c(=O)c(C)c2C)cc(OC)c1CN1CC[C@H](N2CCN(c3ccc(N[C@H]4CCC(=O)NC4=O)cc3F)CC2)C(F)(F)C1", "note": "[Compound 1, (S)-3-((4-(4-((S)-1-(2,6-dimethoxy-4-(1,4,5-trimethyl-6-oxo-1,6-dihydropyridin-3-yl)benzyl)-3,3-difluoropiperidin-4-yl)piperazin-1-yl)-3-fluorophenyl)amino)-piperidine-2,6-dione]", "values": [{"measurement": "IC50", "setting": "hERG potassium channels", "value": 2.91, "unit": "µM"}, {"measurement": "HillSlope", "setting": "hERG potassium channels; human", "value": 1.26}, {"measurement": "POI (%)", "setting": "hERG potassium channels; human, 0.3 µM", "value": 12.42, "unit": "%"}, {"measurement": "POI (%)", "setting": "hERG potassium channels; human, 1 µM", "value": 14.61, "unit": "%"}, {"measurement": "POI (%)", "setting": "hERG potassium channels; human, 3 µM", "value": 22.59, "unit": "%"}, {"measurement": "POI (%)", "setting": "hERG potassium channels; human, 10 µM", "value": 19.49, "unit": "%"}, {"measurement": "POI (%)", "setting": "hERG potassium channels; human, 30 µM", "value": 21.92, "unit": "%"}, {"measurement": "Comments", "setting": "[1]; slow evaporation at room temperature, 1,4-dioxane", "value": "Gel-like sample"}, {"measurement": "Comments", "setting": "[1]; slow evaporation at room temperature, 2-MeTHF", "value": "Gel-like sample"}, {"measurement": "XRPD", "setting": "[1]; slow evaporation at room temperature, Acetonitrile", "value": "Pattern A"}, {"measurement": "Comments", "setting": "[1]; slow evaporation at room temperature, Ethanol", "value": "Gel-like sample"}, {"measurement": "XRPD", "setting": "[1]; slow evaporation at room temperature, Ethyl acetate", "value": "Pattern F"}, {"measurement": "Comments", "setting": "[1]; slow evaporation at room temperature, THF", "value": "Jelly-like sample"}]}]}
